Laboratory results reported in patent US10392357B2, “Glucagon-like peptide 1 modulator and uses thereof” (Academia Sinica, priority 2015, dated 2019).

Key:
Format in all cases: cell-based
[1] = molecular target: T1, GLP-1R (UniProt P01275+P32301); test: cell-based; parameters: Activity % of compound 1 (potentiation of GLP-1 induced cAMP production): concentration or dose not given beside the values; conditions: for Activity % of compound 1 (potentiation of GLP-1 induced cAMP production): relative to compound 1 = 100; for effect on GLP-1R signaling (GLP-1 induced cAMP production): FIG. 1A to 1E
T1 construct: endogenous in cells; host or cells: RINm5F cells stably expressing the RG-cAMP BRET sensor
Procedure: Next day, cells were washed twice with 0.1 ml phenol red-free MEM containing 5 mM HEPES, and incubated in the same medium for 1 h. The medium was replaced with 90 μL the same medium containing 1 mg/ml BSA and 5 μM DeepBlueC. The whole plate was immediately loaded onto a SpectraMax Paradigm Detection Platform equipped with a Dual-Color luminescence detection cartridge and SoftMax Pro 6.2.2 (Molecular Devices, Sunnyvale, Calif.) to obtain the background BRET signal based on the sequential integration of the luminescence detected at 370-450 and 500-530 nm over 60-150 s. Each well was then stimulated by adding 10 μl of 10× solutions of peptide and lipids and 1 mg/ml BSA in phenol red-free MEM containing 5 mM HEPES, and BRET signals were obtained immediately under identical settings. The BRET ratio is the ratio of light emitted between 90 and 300 s at 500-530 nm to that emitted at 370-450 nm. […] The dose-response curve, maximal response, and concentration of peptide needed to yield half-maximal response (EC50) were obtained by nonlinear regression to fit the data to the agonist versus response equation using Prism software 5.0 (GraphPad, San Diego). Unless specified, all cAMP response data are the means±S.E. from three independent experiments with triplicate assays.

[2] = tested on: H460 cells; test: Cell viability test (PrestoBlue) in H460 cells; conditions: 72-h treatment, FIG. 5; for cytotoxicity: test concentration 0.78 to 100 μM
Procedure: Cytotoxicity of H460 cells to various compounds was assessed using PrestoBlue® reagent, which was modified by the reducing environment of the viable cell and turns from blue to red in color. In brief, 3,000 H460 cells were seeded with 0.1 ml of RPMI 1640 medium in each well of a 96-well plate and incubated at 37° C. for 24 h before compound treatment. After a 72-h compound treatment, PrestoBlue™ cell viability reagent (Invitrogen) was added to each well according to the manufacturer's protocol. The plates were further incubated in the dark at 37° C. in 5% CO2 for 10 min, and absorbance of all wells was read at both the 570- and 600-nm wavelengths using automatic enzyme-linked immunosorbent assay plate reader (Molecular Devices, Union City, Calif.). The raw data were normalized and corrected according to the manufacturer's protocol. All samples were tested in triplicate, and each test was repeated three times. Cell viability was calculated using the following formula: percent of 100×(average corrected values of compound treated cells)/(average corrected values of untreated cells).

[3] = molecular target: T2, GLP-1R-V2R chimeric (Homo sapiens, UniProt P01275+P43220); test: Receptor endocytosis assay in U2OS cells co-expressing GLP-1R-V2R and β-arrestin2:GFP
T2 construct: the first 440 amino acids of the GLP-1R (Met-1 to Thr-440); vasopressin V2 receptor C-terminal tail, last 29 amino acids, Ala-343 to Ser-371 (AVPR2); expressed in transfected cells; host or cells: U2OS osteosarcoma cells stably expressing beta-arrestin2:GFP (Norak Biosciences), transfected with pcDNA3-GLP-1R-V2R
Source text: U2OS osteosarcoma cell line stably expressing a β-arrestin2:GFP fusion protein was obtained from Norak Biosciences. The pcDNA3 GLP-1R-V2R chimeric construct contains the first 440 amino acids of the GLP-1R (Met-1 to Thr-440) fused to the last 29 amino acids of the vasopressin V2 receptor (Ala-343 to Ser-371) and separated by two alanine residues as linker. […]
Images were acquired on an XL model of the ImageXpress® Micro System (Molecular Devices, Sunnyvale, Calif.) and analyzed with MetaXpress High-Content Image Acquisition and Analysis Software (Molecular Devices, Sunnyvale, Calif.) using the granularity and variable grain analysis modules. […] The number of spots, total area covered by spots, average and integrated fluorescence intensity of the spots, and nuclear area and fluorescence intensity were logged into the database. Data from abnormal cells for which the values were above threshold (abnormal: average nuclear staining intensity <500; integrated fluorescence intensity of area covered by spots <150) were ruled out using Acuity Xpress, followed by selection of the measurement method, spot fluorescence integrated intensity to calculate the average number of spots per nucleus. […]

[4] = tested on: RINm5F cells; test: GLP-1-elicited insulin release from RINm5F cells; conditions: FIG. 4

T1 sequence (P32301 22-463): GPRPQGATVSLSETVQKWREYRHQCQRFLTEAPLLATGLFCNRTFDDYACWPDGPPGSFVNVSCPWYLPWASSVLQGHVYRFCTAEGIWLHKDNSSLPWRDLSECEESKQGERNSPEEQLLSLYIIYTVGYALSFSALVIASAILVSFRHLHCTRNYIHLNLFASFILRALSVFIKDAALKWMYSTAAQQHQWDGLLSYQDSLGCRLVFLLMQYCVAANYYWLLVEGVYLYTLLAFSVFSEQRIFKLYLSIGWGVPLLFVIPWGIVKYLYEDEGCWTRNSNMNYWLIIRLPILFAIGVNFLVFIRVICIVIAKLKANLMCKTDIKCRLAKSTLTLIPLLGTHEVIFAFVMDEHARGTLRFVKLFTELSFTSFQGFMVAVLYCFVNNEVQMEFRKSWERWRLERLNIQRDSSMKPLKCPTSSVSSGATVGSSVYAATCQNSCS
T1 sequence (P01275 98-127 limits assumed): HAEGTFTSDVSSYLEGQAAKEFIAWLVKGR
T2 sequence (P43220 with tags, fused parts or gaps limits assumed): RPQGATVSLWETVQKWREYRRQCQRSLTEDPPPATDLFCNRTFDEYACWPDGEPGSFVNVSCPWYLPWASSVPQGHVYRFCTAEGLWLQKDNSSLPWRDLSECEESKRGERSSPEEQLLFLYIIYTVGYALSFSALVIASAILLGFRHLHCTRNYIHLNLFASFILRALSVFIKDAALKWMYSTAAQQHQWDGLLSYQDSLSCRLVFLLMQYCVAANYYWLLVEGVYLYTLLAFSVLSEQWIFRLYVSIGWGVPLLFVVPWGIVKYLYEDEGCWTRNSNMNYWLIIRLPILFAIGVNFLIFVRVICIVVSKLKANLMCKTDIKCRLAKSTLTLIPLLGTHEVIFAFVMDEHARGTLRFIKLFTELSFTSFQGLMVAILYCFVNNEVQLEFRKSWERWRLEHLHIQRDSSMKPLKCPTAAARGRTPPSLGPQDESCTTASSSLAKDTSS
T2 sequence (P01275 98-127 limits assumed, stated change not applied): as the sequence (P01275 98-127 limits assumed) above

| Compound | Activity % of compound 1 (potentiation of GLP-1 induced cAMP production) [1] [%] | further results |
| --- | --- | --- |
| CCCCC/C=C\C/C=C\C/C=C\CCCCC(=O)OC [Methyl γ-linolenate] | 20 |  |
| CCCCCCCC/C=C\CCCCCCCC(=O)O [Oleic acid] | 35 |  |
| CCCCCC/C=C/CCCCCCCCCC(=O)O [11-trans-octadecenoic acid] | 10 |  |
| CCCCC/C=C\C/C=C\CCCCCCCC(=O)NCCO [Linoleoyl ethanolamide] | 90 | Activity % of compound 1 (potentiation of GLP-1 induced cAMP production) ([1]; listed as linoleoyl ethanolamide): about 90% |
| CC/C=C\C/C=C\C/C=C\CCCCCCCC(=O)OC [linolenic acid methyl ester] | 15 |  |
| CCCCC/C=C\C/C=C\CCCCCCCC(=O)OCC [Ethyl linoleate] | 60 |  |
| CCC=CCC=CCC=CCC=CCC=CCC=CCCC(=O)N[C@H]1C(=O)O[C@@H](C)[C@@H]1C [Compound 12] |  | effect on GLP-1R signaling (GLP-1 induced cAMP production) ([1]; RINm5F cells): enhance the GLP-1R signaling |
| Cis-octadecenoic acid | 25 |  |
| CCCCCC/C=C/C=C\CCCCCCCC(=O)O [9(Z),11(E)-conjugated linoleic acid] | 25 |  |
| N.N.[Cl][Pt][Cl] [cisplatin] |  | IC50 [2]: 6.7 µM |
| CC/C=C\C/C=C\C/C=C\C/C=C\C/C=C\C/C=C\CCC(=O)NCCc1c[nH]c2ccc(O)cc12 [Docosahexaenoyl serotonin] | 15 |  |
| CCCCCCCC/C=C\CCCCCCCC(=O)NCCO [oleoylethanolamide] |  | cytotoxicity [2]: did not exhibit detectable cytotoxicity |
| CCCCC/C=C\C/C=C\CCCCCCCC(=O)NC1C(=O)OC(C)C1C (stereo not shown) [Compound 1, (9Z,12Z)-N-(4,5-Dimethyl-2-oxotetrahydrofuran-3-yl)octadeca-9,12-dienamide] | 100 | EC50 [3]: 0.87 µM; effect on insulin release elicited by GLP-1 ([4]; 7.7 μM compound added to 2 nM GLP-1): significantly enhanced; insulin release by compound alone ([4]; compound alone, without GLP-1): did not trigger any insulin release; relative potency among the compounds of formula (I) tested in example 2 ([1]; RINm5F cells): most potency; effect on GLP-1R signaling (GLP-1 induced cAMP production) ([1]; RINm5F cells): enhance the GLP-1R signaling; shift of the GLP-1 dose-response curve (cAMP production) to the left ([1]; compound 1 increased from 0.8 μM to 26 μM, FIG. 2 panel A): > 10 fold; EC50 ([1]; dose dependent and saturable, FIG. 2 panel B): 3.7 µM; cytotoxicity [2]: did not exhibit detectable cytotoxicity |
| CC/C=C\C/C=C\C/C=C\CCCCCCCC(=O)O [α-linolenic acid] | 15 |  |
| CCCCC/C=C\C=C\CCCCCCCCC(=O)O [10(E),12(Z)-conjugated linoleic acid] | 30 |  |
| CCCCC/C=C/C/C=C/CCCCCCCC(=O)O [Linoelaidic acid] | 30 |  |
| CCCCC/C=C/C/C=C/CCCCCCCC(=O)OCC(O)CO (stereo not shown) [1-monolinolein] | 80 |  |

| Compound | Activity % of compound 1 (potentiation of GLP-1 induced cAMP production) [1] [%] | further results |
| --- | --- | --- |
| CCCCCCCC/C=C\CCCCCCCC(=O)OC(CO)CO [2-oleoylglycerol] |  | cytotoxicity [2]: did not exhibit detectable cytotoxicity |
| CCCCC/C=C\C/C=C\CCCCCCCC(=O)OC [linoleic acid methyl ester] | 30 |  |
| CC/C=C\C/C=C\C/C=C\C/C=C\C/C=C\C/C=C\CCC(=O)NCCO [Docosahexaenoyl ethanolamide] | 20 |  |
| CCCCC/C=C\C/C=C\C/C=C\CCCCC(=O)OC [γ-linoleic acid methyl ester] | 25 |  |
| GLP-1(7-36)-amide |  | insulin release from RINm5F cells ([4]; 2 nM GLP-1 alone): stimulated a low level of insulin release |
| CCCCC/C=C/C/C=C/CCCCCCCC(=O)OC [Methyl linolelaidate] | 30 |  |
| CC/C=C\C/C=C\C/C=C\C/C=C\C/C=C\C/C=C\CCC(=O)O [Docosahexaenoic acid] | 60 |  |
| CCCCC/C=C\C/C=C\CCCCCCCC(=O)OC [Methyl cis,cis-9,12-octadecadienoate] | 15 |  |
| CCCCC/C=C\C/C=C\CCCCCCCC(=O)NCC(=O)O [Linoleoyl glycine] | 80 |  |
| CCCCCC/C=C/C=C/CCCCCCCC(=O)O [9(E),11(E)-conjugated linoleic acid] | 30 |  |
| CC/C=C\C/C=C\C/C=C\C/C=C\C/C=C\CCCC(=O)NCCc1c[nH]c2ccc(O)cc12 [Eicosapentaenoyl serotonin] | 20 |  |
| CC/C=C\C/C=C\C/C=C\CCCCCCCC(=O)N[C@@H](Cc1ccc(O)cc1)C(=O)O [N-(α-linolenoyl) tyrosine] | 70 |  |
| CC/C=C\C/C=C\C/C=C\C/C=C\C/C=C\CCCC(=O)O [Eicosapentaenoic acid] | 60 |  |
| C[C@@H]([C@H](C)O)[C@H](N)C(=O)O [4-hydroxyisoleucine] | <10 |  |
| CC/C=C/C/C=C/C/C=C/C/C=C/C/C=C/C/C=C/CCC(=O)NCC(=O)O [Docosahexaenoyl glycine] | 15 |  |
| CC/C=C\C/C=C\C/C=C\C/C=C\C/C=C\CCCC(=O)NCCO [Eicosapentaenoyl ethanolamide] | 90 | Activity % of compound 1 (potentiation of GLP-1 induced cAMP production) ([1]; listed as eicosanpentaenoyl ethanolamide): about 90% |
